Measured values taken from patent US10023587B2, “Oxabicycloheptanes and oxabicycloheptenes, their preparation and use” (LIXTE BIOTECHNOLOGY, INC., priority 2007, dated 2018).
In brackets after ≈: the same amount, converted by molar mass. Where two headings read alike, the source gives them in different places.

How the values were obtained:
[1] = tested on: T. rubrum; experiment: Antifungal susceptibility testing (broth dilution), T. rubrum; format: cell-based, Trichophyton rubrum; conditions: for MIC: Trichophyton rubrum, read-out: minimum inhibitory concentration (MIC); for minimum inhibitory concentration (MIC): isolate 07-2055
Description: (§1) Anti-fungal testing was completed with a common lot for compounds 100 and 102.
(§2) A 10 mg portion of each powder was weighed out and added to 1 ml of sterile distilled water for compound 100 and DMSO for compound 102. The resulting concentration of […] was diluted to a working concentration of 640 μg/ml for each compound. All subsequent dilutions were also made using the respective diluents. Final testing concentrations ranged from 0.125-64 μg/ml.
(§3) A total of 23 isolates were tested to include 3 Candida albicans, 3 Candida glabrata, 3 Cryptococcus neoformans, 3 Aspergillus fumigatus, 3 Rhizopus oryzae, 3, Fusarium solani, 3 Pseudallescheria boydii, and 2 […] rubrum. All isolates were clinical isolates submitted to the Fungus Testing Laboratory for evaluation. Antifungal susceptibility testing was accomplished according to the methods outlined in the National Committee for Clinical Laboratory Standards, M-27A2, Reference Method for Broth Dilution Antifungal Susceptibility Testing of Yeasts; Approved Standard, and M38-A “Reference Method for Broth Dilution Antifungal Susceptibility Testing of Conidium-Forming Filamentous Fungi; Approved Standard”. This includes testing in RPMI-1640 with glutamine and without bicarbonate, an inoculum size of 0.5-2.5×10^3 for yeasts or 1-5×10^4 for moulds, and incubation at 35° C. for 24 and 48 hours.

[2] = tested on: A. fumigatus; experiment: Antifungal susceptibility testing (broth dilution), A. fumigatus; format: cell-based, Aspergillus fumigatus; conditions: for MIC: Aspergillus fumigatus, read-out: minimum inhibitory concentration (MIC)
Description: as §1, §2, §3

[3] = tested on: HL-60 cells; experiment: CellTiter-Glo assay, HL-60; format: cell-based; conditions: Homo sapiens; HL-60 Leukemia promyelocytic, 72 hr; read-out: IC50 (50% Inhibition of Proliferation)
Description: (§4) MDA-MB-231, HT-29, NCI-H460, NCI-H522, NCI-H69, GXF-209, HepG2, OVAR-3, PANC-1, DU-145, LNCAP, HL-60, K-562, and MOLT-4 cell lines were either obtained from the American Type Culture Collection (ATCC; Manassas, Va.), or from the National Cancer Institute (NCI; Frederick, Md.). RPMI-1640 media, L-glutamine dipeptide (HyQ SG-200), and HEPES were obtained from Hyclone (Logan, Utah).
(§5) All cell lines were routinely cultured twice weekly in RPMI-1640 medium supplemented with 2 mM L-glutamine dipeptide, 10 mM HEPES, and 10% FBS.
(§6) The adherent cell lines MDA-MB-231, HT-29, NCI-H460, NCI-H522, GXF-209, HepG2, OVAR-3, PANC-1, DU-145, and LNCAP cells were each seeded into two 96-well plates at 2,500 cells per well in a total volume of 50 uL and incubated in a 37° C. humidified 5% CO2 cell culture incubator overnight. The suspension cell lines NCI-H69, HL-60, K-562, and MOLT-4 were each seeded into two 96-well plates at 10,000 cell per well in a total volume of 50 uL and incubated in a 37° C. humidified 5% CO2 incubator overnight.
(§7) This was followed by making 2× stocks of the final concentrations required in RPMI-1640 medium. […]
(§8) Briefly, plates were removed from the incubator and placed on the bench at room temperatures for 30 minutes. […] Luminescence was then recorded using the PerkinElmer Microbeta scintillation and luminescence counter (Trilux).

[4] = tested on: GXF-209 cells; experiment: CellTiter-Glo assay, GXF-209; format: cell-based; conditions: Homo sapiens; GXF-209 Stomach, 72 hr; read-out: IC50 (50% Inhibition of Proliferation)
Description: as §4, §5, §6, §7, §8

[5] = tested on: C. glabrata; experiment: Antifungal susceptibility testing (broth dilution), C. glabrata; format: cell-based, Candida glabrata; conditions: for MIC: Nakaseomyces glabratus, read-out: minimum inhibitory concentration (MIC)
Description: as §1, §2, §3

[6] = tested on: NCI-H522 cells; experiment: CellTiter-Glo assay, NCI-H522; format: cell-based; conditions: Homo sapiens; NCI-H522 Lung adenoca, 72 hr; read-out: IC50 (50% Inhibition of Proliferation)
Description: as §4, §5, §6, §7, §8

[7] = tested on: R. arrhizus; experiment: Antifungal susceptibility testing (broth dilution), R. arrhizus; format: cell-based, Rhizopus oryzae; conditions: for MIC: Rhizopus arrhizus, read-out: minimum inhibitory concentration (MIC)
Description: as §1, §2, §3

[8] = tested on: MDA-MB-231 cells; experiment: CellTiter-Glo assay, MDA-MB-231; format: cell-based; conditions: Homo sapiens; MDA-MB-231 Breast, 72 hr; read-out: IC50 (50% Inhibition of Proliferation)
Description: as §4, §5, §6, §7, §8

[9] = tested on: C. albicans; experiment: Antifungal susceptibility testing (broth dilution), C. albicans; format: cell-based, Candida albicans; conditions: for MIC: Candida albicans, read-out: minimum inhibitory concentration (MIC)
Description: as §1, §2, §3

[10] = tested on: DU-145 cells; experiment: CellTiter-Glo assay, DU-145; format: cell-based; conditions: Homo sapiens; DU-145 Prostate, 72 hr; read-out: IC50 (50% Inhibition of Proliferation)
Description: as §4, §5, §6, §7, §8

[11] = Solubility (water, lipid); format: physicochemical
[12] = tested on: K-562 cells; experiment: CellTiter-Glo assay, K-562; format: cell-based; conditions: Homo sapiens, K562; K-562 Leukemia chronic myelo, 72 hr; read-out: IC50 (50% Inhibition of Proliferation)
Description: as §4, §5, §6, §7, §8

| Structure (SMILES) | minimum inhibitory concentration (MIC) ([1]; 24 Hours) [µg/mL] | minimum inhibitory concentration (MIC) ([1]; 48 Hours) [µg/mL] | minimum inhibitory concentration (MIC) ([2]; isolate 06-4126, 24 Hours) [µg/mL] | minimum inhibitory concentration (MIC) ([2]; isolate 06-4126, 48 Hours) [µg/mL] | minimum inhibitory concentration (MIC) ([2]; isolate 07-2039, 24 Hours) [µg/mL] | minimum inhibitory concentration (MIC) ([2]; isolate 07-2039, 48 Hours) [µg/mL] | IC50 [3] [µM] | IC50 [4] [µM] | minimum inhibitory concentration (MIC) ([5]; isolate 07-2965, 24 Hours) [µg/mL] | minimum inhibitory concentration (MIC) ([5]; isolate 07-2965, 48 Hours) [µg/mL] | minimum inhibitory concentration (MIC) ([5]; isolate 07-3013, 24 Hours) [µg/mL] | minimum inhibitory concentration (MIC) ([5]; isolate 07-3013, 48 Hours) [µg/mL] | IC50 [6] [µM] | minimum inhibitory concentration (MIC) ([7]; isolate 07-2044, 24 Hours) [µg/mL] | minimum inhibitory concentration (MIC) ([7]; isolate 07-2044, 48 Hours) [µg/mL] | minimum inhibitory concentration (MIC) ([7]; isolate 07-2078, 24 Hours) [µg/mL] | minimum inhibitory concentration (MIC) ([7]; isolate 07-2078, 48 Hours) [µg/mL] | IC50 [8] [µM] | minimum inhibitory concentration (MIC) ([9]; isolate 07-3006, 24 Hours) [µg/mL] | minimum inhibitory concentration (MIC) ([9]; isolate 07-3006, 48 Hours) [µg/mL] | other results |
| --- | --- | --- | --- | --- | --- | --- | --- | --- | --- | --- | --- | --- | --- | --- | --- | --- | --- | --- | --- | --- | --- |
| CC(C)(C)OC(=O)N1CCN(C(=O)C2C(C(=O)O)[C@H]3CC[C@@H]2O3)CC1 (stereo in doubt) [Compound 102, 4-(3-Carboxy-7oxa-bicyclo[2.2.1]heptane-2-carbonyl)piperazine-1-carboxylic acid tert-butyl ester] | 2 (≈ 5.64 µM) | 2 (≈ 5.64 µM) | >64 | >64 | >64 | >64 | 6.5 | 5.3 | >64 | >64 | >64 | >64 | 2.2 | >64 | >64 | >64 | >64 | 6.6 | >64 | >64 | MIC ([1]; isolate 07-1743, 24 Hours): 2 µg/mL (≈ 5.64 µM); MIC ([1]; isolate 07-1743, 48 Hours): 2 µg/mL (≈ 5.64 µM); Antifungal activity against T. rubrum (in words) ([1]; testing concentrations 0.125-64 μg/ml): significant activity; MIC ([2]; isolate 05-388, 24 Hours): > 64 µg/mL; MIC ([2]; isolate 05-388, 48 Hours): > 64 µg/mL; MIC ([5]; isolate 07-2964, 24 Hours): > 64 µg/mL; MIC ([5]; isolate 07-2964, 48 Hours): > 64 µg/mL; MIC ([7]; isolate 07-1870, 24 Hours): > 64 µg/mL; MIC ([7]; isolate 07-1870, 48 Hours): > 64 µg/mL; MIC ([9]; isolate 07-3012, 24 Hours): > 64 µg/mL; MIC ([9]; isolate 07-3012, 48 Hours): > 64 µg/mL; minimum inhibitory concentration (MIC) ([9]; isolate 07-3011, 24 Hours): >64 µg/mL; minimum inhibitory concentration (MIC) ([9]; isolate 07-3011, 48 Hours): >64 µg/mL; IC50 [10]: 13 µM; Lipid solubility (in words) [11]: lipid soluble; IC50 [12]: 13.7 µM |
| CN1CCN(C(=O)C2C(C(=O)O)[C@H]3CC[C@@H]2O3)CC1 (some centres unmarked) [Compound 100, Endothall 4-Methylpiperazine Monoamide] | >64 | >64 | >64 | >64 | >64 | >64 | 7.7 | 7.9 | >64 | >64 | >64 | >64 | 3.4 | >64 | >64 | >64 | >64 | 9.5 | >64 | >64 | MIC ([1]; 24 h): > 64 µg/mL; MIC ([1]; 48 h): > 64 µg/mL; MIC ([2]; 24 h): > 64 µg/mL; MIC ([2]; 48 h): > 64 µg/mL; MIC ([5]; 24 h): > 64 µg/mL; MIC ([5]; 48 h): > 64 µg/mL; MIC ([7]; 24 h): > 64 µg/mL; MIC ([7]; 48 h): > 64 µg/mL; MIC ([9]; 24 h): > 64 µg/mL; MIC ([9]; 48 h): > 64 µg/mL; minimum inhibitory concentration (MIC) ([9]; isolate 07-3011, 24 Hours): >64 µg/mL; minimum inhibitory concentration (MIC) ([9]; isolate 07-3011, 48 Hours): >64 µg/mL; IC50 [10]: 16.4 µM; Water solubility (in words) ([11]; own compounds): water soluble; IC50 [12]: 10.7 µM |
